Experimental data from ChEMBL document CHEMBL1777803, “Synthesis and SAR study of tricyclic sulfones as γ-secretase inhibitors: C-6 and C-8 positions” (Bioorg Med Chem Lett, 2011).

Assay: nhibition of gamma secretase-mediated Abeta42 production by cell based assay
Conditions: not given

Compared with `O=S(=O)(N[C@@H]1CC[C@@]2(S(=O)(=O)c3ccc(Cl)cc3)c3c(F)ccc(F)c3OC[C@@]2(O)C1)C(F)(F)F`, `O=S(=O)(N[C@@H]1CC[C@@]2(S(=O)(=O)c3ccc(C(F)(F)F)cc3)c3c(F)ccc(F)c3OC[C@@]2(O)C1)C(F)(F)F` is 1.5-fold higher in IC50: 33 nM for the first, 51 nM for the second. The first is the more potent here.

For `O=S(=O)(N[C@@H]1CC[C@@]2(S(=O)(=O)c3ccc(Cl)cc3)c3c(F)ccc(F)c3OC[C@@]2(O)C1)C1CC1`, the IC50 was 9 nM.

Assay: nhibition of gamma secretase-mediated Abeta40 production by cell based assay
Conditions: not given

First: O=S(=O)(N[C@@H]1CC[C@@]2(S(=O)(=O)c3ccc(Cl)cc3)c3c(F)ccc(F)c3OC[C@@]2(O)C1)C(F)(F)F
Second: O=S(=O)(N[C@@H]1CC[C@@]2(S(=O)(=O)c3ccc(C(F)(F)F)cc3)c3c(F)ccc(F)c3OC[C@@]2(O)C1)C(F)(F)F
The IC50 of the first is 7.3-fold lower: 11 nM for the first, 80 nM for the second. The first is the more potent here.

With `O=S(=O)(N[C@@H]1CC[C@@]2(S(=O)(=O)c3ccc(Cl)cc3)c3c(F)ccc(F)c3OC[C@@]2(O)C1)C1CC1` the IC50 was 3 nM.

Assay: Dissociation constant, pKa of the compound in DMSO
Type: physicochemical
Conditions: not given

Work on `CS(N)(=O)=O` [METHANESULFONAMIDE] yielded a pKa of 17.5.

Same assay, conditions: DMSO; read-out: pKa

In the case of `NS(=O)(=O)C(F)(F)F` [TRIFLUOROMETHANESULFONAMIDE], the pKa is reported as 9.7.

Assay: Inhibition of gamma secretase-mediated Abeta40 production
Conditions: not given

`O=S(=O)(N[C@@H]1CC[C@@]2(S(=O)(=O)c3ccc(Cl)cc3)c3c(F)ccc(F)c3OC[C@H]2C1)C(F)(F)F` and `O=S(=O)(N[C@@H]1CC[C@@]2(S(=O)(=O)c3ccc(Cl)cc3)c3c(F)ccc(F)c3OC[C@@]2(O)C1)C(F)(F)F` are within 1.5-fold of each other in IC50: 27 nM for the first, 21 nM for the second.

First: O=S(=O)(NCCO[C@]12CCCC[C@@]1(S(=O)(=O)c1ccc(Cl)cc1)c1c(F)ccc(F)c1OC2)C(F)(F)F
Second: CS(=O)(=O)NCCO[C@]12CCCC[C@@]1(S(=O)(=O)c1ccc(Cl)cc1)c1c(F)ccc(F)c1OC2
The IC50 of the first is 11-fold higher: 295 nM for the first, 26 nM for the second.

`CCSCCO[C@]12CCCC[C@@]1(S(=O)(=O)c1ccc(Cl)cc1)c1c(F)ccc(F)c1OC2` and `CC(C)SCCO[C@]12CCCC[C@@]1(S(=O)(=O)c1ccc(Cl)cc1)c1c(F)ccc(F)c1OC2` are within 1.5-fold of each other in IC50: 170 nM for the first, 180 nM for the second.

First: CCS(=O)(=O)CCO[C@]12CCCC[C@@]1(S(=O)(=O)c1ccc(Cl)cc1)c1c(F)ccc(F)c1OC2
Second: CS(=O)(=O)CCO[C@]12CCCC[C@@]1(S(=O)(=O)c1ccc(Cl)cc1)c1c(F)ccc(F)c1OC2
The IC50 of the first is 1.7-fold higher: 15 nM for the first, 9 nM for the second.

First: CC(C)S(=O)(=O)CCO[C@]12CCCC[C@@]1(S(=O)(=O)c1ccc(Cl)cc1)c1c(F)ccc(F)c1OC2
Second: CN(C)S(=O)(=O)CCO[C@]12CCCC[C@@]1(S(=O)(=O)c1ccc(Cl)cc1)c1c(F)ccc(F)c1OC2
The IC50 of the first is 6.2-fold lower: 8 nM for the first, 50 nM for the second.

`CNS(=O)(=O)CCO[C@]12CCCC[C@@]1(S(=O)(=O)c1ccc(Cl)cc1)c1c(F)ccc(F)c1OC2` and `CNCCO[C@]12CCCC[C@@]1(S(=O)(=O)c1ccc(Cl)cc1)c1c(F)ccc(F)c1OC2` are within 1.5-fold of each other in IC50: 37 nM for the first, 40 nM for the second.

Going from `NCCO[C@]12CCCC[C@@]1(S(=O)(=O)c1ccc(Cl)cc1)c1c(F)ccc(F)c1OC2` to `CN(C)CCO[C@]12CCCC[C@@]1(S(=O)(=O)c1ccc(Cl)cc1)c1c(F)ccc(F)c1OC2`, the IC50 rises from 12 nM to 31 nM (2.6-fold). The first is the more potent here.

Compared with `O=S(=O)(c1ccc(Cl)cc1)[C@@]12CCC3(C[C@]1(O)COc1c(F)ccc(F)c12)OCCO3`, `CCS(=O)(=O)CCO[C@@]12COc3c(F)ccc(F)c3[C@]1(S(=O)(=O)c1ccc(Cl)cc1)CCC1(C2)OCCO1` is 2.2-fold lower in IC50: 2900 nM for the first, 1300 nM for the second. The second is the more potent here.

Compared with `O=C1CC[C@@]2(S(=O)(=O)c3ccc(Cl)cc3)c3c(F)ccc(F)c3OC[C@@]2(O)C1`, `O=C1CC[C@@]2(S(=O)(=O)c3ccc(Cl)cc3)c3c(F)ccc(F)c3OC[C@]2(O)C1` is 140-fold higher in IC50: 21 nM for the first, 3000 nM for the second.

Compared with `O=S(=O)(c1ccc(Cl)cc1)[C@@]12CC[C@H](O)C[C@]1(O)COc1c(F)ccc(F)c12`, `O=S(=O)(c1ccc(Cl)cc1)[C@@]12CC[C@@H](O)C[C@]1(O)COc1c(F)ccc(F)c12` is 13-fold lower in IC50: 363 nM for the first, 28 nM for the second. The second is the more potent here.

Compared with `O=C1CC[C@@]2(S(=O)(=O)c3ccc(C(F)(F)F)cc3)c3c(F)ccc(F)c3OC[C@@]2(O)C1`, `O=S(=O)(c1ccc(C(F)(F)F)cc1)[C@@]12CC[C@@H](O)C[C@]1(O)COc1c(F)ccc(F)c12` is 2.6-fold higher in IC50: 53 nM for the first, 136 nM for the second.

First: O=C1CC[C@@]2(S(=O)(=O)c3ccc(Cl)cc3)c3c(F)ccc(F)c3OC[C@H]2C1
Second: O=S(=O)(c1ccc(Cl)cc1)[C@@]12CCCC[C@@H]1COc1c(F)ccc(F)c12
The IC50 of the first is 1.7-fold lower: 13 nM for the first, 22 nM for the second. The first is the more potent here.

`CCS(=O)(=O)CCO[C@@]12COc3c(F)ccc(F)c3[C@]1(S(=O)(=O)c1ccc(Cl)cc1)CCC(=O)C2` and `CC(C)S(=O)(=O)CCO[C@@]12COc3c(F)ccc(F)c3[C@]1(S(=O)(=O)c1ccc(Cl)cc1)CCC(=O)C2` are within 1.5-fold of each other in IC50: 160 nM for the first, 130 nM for the second.

First: CCS(=O)(=O)CCO[C@@]12COc3c(F)ccc(F)c3[C@]1(S(=O)(=O)c1ccc(Cl)cc1)CC[C@@H](O)C2
Second: CC(C)S(=O)(=O)CCO[C@@]12COc3c(F)ccc(F)c3[C@]1(S(=O)(=O)c1ccc(Cl)cc1)CC[C@@H](O)C2
The IC50 of the first is 1.7-fold higher: 87 nM for the first, 52 nM for the second. The second is the more potent here.

Compared with `CC(C)S(=O)(=O)CCO[C@@]12COc3c(F)ccc(F)c3[C@]1(S(=O)(=O)c1ccc(Cl)cc1)CCC1(C2)OCCO1`, `O=S(=O)(NCCO[C@@]12COc3c(F)ccc(F)c3[C@]1(S(=O)(=O)c1ccc(Cl)cc1)CC[C@@H](O)C2)C(F)(F)F` is 4.4-fold higher in IC50: 940 nM for the first, 4100 nM for the second. The first is the more potent here.

Going from `O=S(=O)(N[C@@H]1CC[C@@]2(S(=O)(=O)c3ccc(Cl)cc3)c3c(F)ccc(F)c3OC[C@@]2(O)C1)C(F)F` to `O=S(=O)(CF)N[C@@H]1CC[C@@]2(S(=O)(=O)c3ccc(Cl)cc3)c3c(F)ccc(F)c3OC[C@@]2(O)C1`, the IC50 rises from 68 nM to 164 nM (2.4-fold). The first is the more potent here.

Compared with `O=S(=O)(N[C@@H]1CC[C@@]2(S(=O)(=O)c3ccc(Cl)cc3)c3c(F)ccc(F)c3OC[C@@]2(O)C1)C1CC1`, `O=S(=O)(N[C@@H]1CC[C@@]2(S(=O)(=O)c3ccc(Cl)cc3)c3c(F)ccc(F)c3OC[C@@]2(O)C1)C1CCC1` is 7.3-fold higher in IC50: 29 nM for the first, 212 nM for the second.

Compared with `O=S(=O)(N[C@@H]1CC[C@@]2(S(=O)(=O)c3ccc(C(F)(F)F)cc3)c3c(F)ccc(F)c3OC[C@@]2(O)C1)C(F)(F)F`, `O=S(=O)(N[C@@H]1CC[C@@]2(S(=O)(=O)c3ccc(C(F)(F)F)cc3)c3c(F)ccc(F)c3OC[C@@]2(O)C1)C1CC1` is 7.5-fold higher in IC50: 23 nM for the first, 173 nM for the second.
